Measurements from US20220257764A1, “USE OF DIKETONE COMPOUND IN PHOTODYNAMIC THERAPY OR DIAGNOSIS” (BEIJING WHOLESOMETECH CO., LTD., priority 2019, published 2022).
Like-named read-outs stand apart in the source and are kept apart here.

What was measured:
Type in all cases: cell-based
[1] = system: human immortalized keratinocyte (Hacat cells); experiment: MTT cytotoxicity to normal cells, Experimental Example 5; details: given under red light, 630-650 nm, 110 mW/cm^2, 900 s, 3 h incubation
Procedure: (1) Logarithmic phase cells were collected, the concentration of a cell suspension was adjusted, the cell suspension was added to a cell culture plate in a dose of 100 μL per well, and the cells were then added to a cell culture plate so that the density of the cells to be tested was adjusted to 1000-10000 wells (edge wells were filled with sterile PBS). […] Generally, the drug in 5 to 7 gradients was added in a dose of 100 μL per well, and 3 to 5 wells were set for each concentration of a drug. […] Cells in the experimental photosensitizer-light irradiation group were incubated for 15 min and then irradiated with light. […] After light irradiation, the cells were washed with PBS. […] After light irradiation, the cells were washed with PBS. […] If the drug could react with the MTT, centrifuging was carried out first, and then the culture solution was discarded and the cells were carefully washed twice or three times with PBS, and then the culture solution containing MTT was added. (6) The culture was terminated and the culture solution in the wells was carefully removed. (7) Dimethyl sulfoxide was added in a dose of 150 μL per well, and the plate was then shaken on a shaker at a low speed for 10 min to fully dissolve crystals. The absorbance at OD 490 nm of each well was measured with enzyme-linked immunoassay. […]

Hela cells = experiment: MTT toxicity to tumor cells, under light and in the dark; details: Homo sapiens
Procedure: (§1) In this experimental example, the toxicity of the compound to tumor cells was tested by an MTT method including the following specific steps.
(§2) (1) Logarithmic cells were collected, the concentration of a cell suspension was adjusted, the cell suspension was added to a cell culture plate in a dose of 100 μL per well, and the cells were then added to a cell culture plate so that the density of the cells to be tested was adjusted to 1000-10000 wells (edge wells were filled with sterile PBS).
(§3) (2) The cells were incubated at 37° C. in the presence of 5% CO2 until the cells in a single layer covered the bottom of each well (96-well flat-bottom plate), and a drug in concentration gradients was added. Generally, the drug in 5 to 7 gradients was added in a dose of 100 μL per well, and 3 to 5 multi-wells were set.
(§4) (3) The cells were randomly divided into treated groups under light and treated groups in the dark, incubated at 37° C. in the presence of 5% CO2 for 16 h to 48 h, and observed with an inverted microscope.
(§5) (4) The cells were irradiated for 900 s with a laser having a wavelength of 450 nm to 480 nm (at an intensity of 110 mW/cm^2), and the final light dose was about 100 J/cm^2. After light irradiation, the cells were washed with PBS.
(§6) (5) An MTT solution (5 mg/ml, 0.5% MTT) was added in a dose of 20 μL per well to further incubate the cells for 4 h. If the drug could react with the MTT, centrifuging was carried out first, and then the culture solution was discarded and the cells were carefully washed twice or three times with PBS, and then the culture solution containing MTT was added.
(§7) (6) The culture was terminated and the culture solution in the wells was carefully removed.
(§8) (7) Dimethyl sulfoxide was added in a dose of 150 μL per well, and the plate was then shaken on a shaker at a low speed for 10 min to fully dissolve crystals. The absorbance at OD 490 nm of each well was measured with enzyme-linked immunoassay.
(§9) (8) Zero adjustment wells (medium, MTT, dimethyl sulfoxide) and control wells (cells, dissolving media of the same concentration, culture solution, MTT, dimethyl sulfoxide) were set at the same time.

SW480 colon cancer cells = experiment: as above; details: Homo sapiens
Procedure: as §1, §2, §3, §4, §5, §6, §7, §8, §9

Escherichia coli = experiment: Inhibitory effect on bacteria (colony counting), under light and in the dark
Procedure: A single Escherichia coli colony was transferred from a solid Luria Bertani (LB) agar plate to 5 ml liquid LB medium and incubated at 37° C. for 12 h. Bacteria were collected by centrifugation (7000 rpm, 1 min) and washed with PBS buffer three times. The supernatant was discarded, and the remaining Escherichia coli cells were resuspended in the PBS buffer. The bacterial suspension was adjusted to make its optical density (OD600) to 1.0. The suspension was then diluted (5 times) with PBS buffer. The diluted Escherichia coli cell suspension was incubated in the dark at 37° C. for 15 min in the presence of a photosensitizer (diketone compound) solution with a concentration of 60 mM, and then irradiated for 200 s under a 15 mW/cm^2 laser light (with a wavelength of 450 nm to 480 nm and in the final light dose of about 3 J cm^2), and after the irradiation the bacterial suspension was serially diluted (10^4 times) with PBS buffer. 100 μL of the diluted bacterial Escherichia coli cell was dispersed on a solid LB agar plate and incubated at 37° C. for 12 h to 16 h, and colonies formed were counted. In the meanwhile, a treated group in the dark and an untreated group in the dark were set; the inhibition rate was determined by dividing the number of colony forming units (cfu) killed in the treated group under light or the treated group in the dark by the number of colony forming units (cfu) killed in the untreated group in the dark.

B16 melanoma cell = experiment: MTT toxicity to tumor cells, under light and in the dark; details: Mus musculus, under light, 450-480 nm laser, 110 mW/cm^2, 900 s
Procedure: as §1, §2, §3, §4, §5, §6, §7, §8, §9

[2] = SW480, under light, 450-480 nm laser, 110 mW/cm^2, 900 s
[3] = read-out: Inhibition rate in the dark
[4] = read-out: Inhibition rate under light
[5] = under light, 450-480 nm laser, 110 mW/cm^2, 900 s
[6] = 60 mM, 450-480 nm laser, 15 mW/cm^2, 200 s, read-out: Inhibition rate under light
[7] = 60 mM, in the dark, read-out: Inhibition rate in the dark

SMILES: NCC(=O)CCC(=O)O [ALA, 5-α aminolevulinic acid, reference compound]
- cytotoxicity to Hacat cells [1]: relatively high cytotoxicity

SMILES: CCC(=O)C(=O)CC [BJMU-201]
- IC50 (Hela cells; in the dark): 59.9 ± 9.9 µM
- IC50 (SW480 colon cancer cells; [2]): 0.0639 ± 0.0105 mM
- inhibition at 60000 µM (Escherichia coli; [3]): 4.9%
- inhibition at 60000 µM (Escherichia coli; [4]): 58%

SMILES: CCCC(=O)C(C)=O [BJMU-202]
- IC50 (B16 melanoma cell): 2.9 ± 0.1 µM
- IC50 (Hela cells; [5]): 2.6 ± 0.6 µM
- IC50 (SW480 colon cancer cells; [2]): 0.0025 ± 0.0005 mM
- inhibition at 60000 µM (Escherichia coli; [6]): 90 ± 3%
- inhibition at 60000 µM (Escherichia coli; [7]): 8.6%

SMILES: CC(=O)C(=O)CBr [BJMU-203]
- IC50 (B16 melanoma cell): 2.7 ± 0.9 µM
- IC50 (Hela cells; [5]): 2.8 ± 1.1 µM
- IC50 (SW480 colon cancer cells; [2]): 0.0031 ± 0.0005 mM
- inhibition at 60000 µM (Escherichia coli; [6]): 93%
- inhibition at 60000 µM (Escherichia coli; [7]): 4.5%

SMILES: CCCCC(=O)C(C)=O [BJMU-205]
- IC50 (B16 melanoma cell): 6.6 ± 1.8 µM
- IC50 (Hela cells; [5]): 5.7 ± 1.7 µM
- IC50 (SW480 colon cancer cells; [2]): 0.0064 ± 0.0019 mM
- inhibition at 60000 µM (Escherichia coli; [6]): 80%
- inhibition at 60000 µM (Escherichia coli; [7]): 2%

SMILES: CC(=O)C(=O)CC(C)C [BJMU-206]
- IC50 (B16 melanoma cell): 144 ± 32.5 µM
- IC50 (Hela cells; [5]): 141 ± 37.4 µM
- IC50 (SW480 colon cancer cells; [2]): 0.144 ± 0.0319 mM
- inhibition at 60000 µM (Escherichia coli; [6]): 46%
- inhibition at 60000 µM (Escherichia coli; [7]): 11.5%

SMILES: O=C(O)C(=O)c1ccccc1 [BJMU-207]
- IC50 (B16 melanoma cell): 96.6 ± 26.3 µM
- IC50 (Hela cells; [5]): 93.3 ± 20.3 µM
- IC50 (SW480 colon cancer cells; [2]): 0.0992 ± 0.0257 mM
- inhibition at 60000 µM (Escherichia coli; [6]): 64%
- inhibition at 60000 µM (Escherichia coli; [7]): 7.3%

SMILES: CC(=O)C(=O)O [BJMU-208]
- IC50 (B16 melanoma cell): 174 ± 10.9 µM
- IC50 (Hela cells; [5]): 162 ± 10.1 µM
- IC50 (SW480 colon cancer cells; [2]): 0.173 ± 0.0108 mM
- inhibition at 60000 µM (Escherichia coli; [6]): 45%
- inhibition at 60000 µM (Escherichia coli; [7]): 8%

SMILES: O=C(C(=O)c1ccccc1)c1ccccc1 [BJMU-209]
- IC50 (Hela cells; in the dark): 8200 ± 530 µM
- IC50 (SW480 colon cancer cells; [2]): 7.8 ± 0.48 mM
- inhibition at 60000 µM (Escherichia coli; [3]): 9.5%
- inhibition at 60000 µM (Escherichia coli; [4]): 26%

SMILES: O=C(C(=O)c1ccncc1)c1ccncc1 [BJMU-210]
- IC50 (B16 melanoma cell): 9800 ± 700 µM
- IC50 (Hela cells; [5]): 9900 ± 700 µM
- IC50 (SW480 colon cancer cells; [2]): 9.6 ± 0.6 mM
- inhibition at 60000 µM (Escherichia coli; [6]): 24%
- inhibition at 60000 µM (Escherichia coli; [7]): 6.4%

SMILES: O=C(C(=O)c1ccc(Br)cc1)c1ccc(Br)cc1 [BJMU-211]
- IC50 (SW480 colon cancer cells; SW480, in the dark): 95 ± 21.3 mM
- IC50 (SW480 colon cancer cells; [2]): 3.2 ± 0.23 mM

SMILES: O=C(C(=O)c1ccc(F)cc1)c1ccc(F)cc1 [BJMU-212]
- IC50 (SW480 colon cancer cells; SW480, in the dark): 99 ± 15.8 mM
- IC50 (SW480 colon cancer cells; [2]): 2.8 ± 0.21 mM

SMILES: COc1ccc(C(=O)C(=O)c2ccc(OC)cc2)cc1 [BJMU-213]
- IC50 (Hela cells; in the dark): 6400 ± 400 µM
- IC50 (SW480 colon cancer cells; [2]): 6.6 ± 0.37 mM

SMILES: O=C(C(=O)c1ccco1)c1ccco1 [BJMU-214]
- IC50 (B16 melanoma cell): 9000 ± 510 µM
- IC50 (Hela cells; [5]): 8800 ± 480 µM
- IC50 (SW480 colon cancer cells; [2]): 8.9 ± 0.5 mM
- inhibition at 60000 µM (Escherichia coli; [6]): 23%
- inhibition at 60000 µM (Escherichia coli; [7]): 5.6%
